Experimental findings from US20140243332A1, “METHODS OF TREATING CANCERS CHARACTERIZED BY ABERRENT ROS1 ACTIVITY” (Oregon Health & Science University, priority 2013, published 2014) are described below.

For orientation: IC50 means the midpoint of a concentration-inhibition curve.

One assay deals with Ba/F3 ALK F1174L cells (Homo sapiens, UniProt Q9UM73, F1174L, cells depend on it). The experiment in a line: Cell viability (MTS) assay, Ba/F3 ALK F1174L. It is filed as cell-based. Conditions: 72 hours, read-out: IC50 (the source's name).
For a further assay, the system named is HCC78 cells. The experiment in a line: HCC78 cell migration (scratch gap closure). Conditions: 50 nM, 18 hours, FIG. 6A. It is filed as cell-based, human. The method, then:
FIG. 6A is a set of six images on the left and a bar graph on the right. The images at left are of a gap at 10 minutes and at 18 hours after ‘scratch’ of cells on a surface. […] The right panel is a bar graph depicting the percent of gap closure determined by measuring the length of a straight line drawn across the gap from imaging the same field of view at initiation of treatment and at 18 hours. Scale bar=200 μm

A further assay concerns NIH3T3 FIG-ROS cells. The experiment in a line: Soft agar colony formation, NIH3T3 FIG-ROS. Conditions: at lower doses than crizotinib. The format is cell-based. An excerpt:
The bottom panels are bar graphs indicating the number of colonies formed from the plates depicted in the top panels. The values indicate average colony number±SEM from 4 independent wells.

In assay [1] the test system is FIG-ROS murine cholangiocarcinoma tumor cells. The experiment in a line: cells. The following applies: Mus musculus, read-out: IC50 cell growth. The method, then: (§1) Hepatoblasts of the genotype AlbCre^+/−; Isl Kras^G12D+/−; p53^R172H/loxp were isolated from ED14.5 mouse embryos and retrovirally transduced with either the FIG-ROS fusion, turbo RFP or a short hairpin RNA against Pten (shPten.1522). At 48 hours following transduction, 1×10^6 cells were resuspended in 25 μl Matrigel and injected sub-capsular into the livers of immune-deficient mice. Upon tumor formation, tumors were explanted and subjected to collagenase digestion. Digests were plated onto gelatin-coated plates. Tumor cells were enriched by either differential trypsinization or cell sorting. […] These four cell lines were further cultured and maintained in DMEM-High glucose medium supplemented with 10% FCS, L-glutamine and penicillin/streptomycin.
(§2) Cell lines were distributed in 96-well plates and incubated with the indicated concentrations of inhibitor for 72 hours. […] Ba/F3 cell lines were plated at 4×10^3 cells/well. HCC78 and mCC cell lines were plated at 1.5×10^3 cells/well. All cell types were seeded in a final volume of 80 microliters. A 20 microliter volume of five-fold concentrated inhibitor media was added. Cell proliferation was measured using a […] viability assay (CellTiter96 Aqueous One® Solution; Promega). A BioTek Synergy 2® plate reader was used to read the absorbance at 490 nm at 30 minutes and 1 hour after addition of MTS. To facilitate comparison between experiments, the raw MTS absorbance of vehicle (0.1% DMSO) treated cells was set to 1 and absorbance from inhibitor treated wells was normalized to the vehicle treated value. […] Data were normalized using Microsoft Excel® and further non-linear regression curve fit analysis of the normalized data for determination of IC50 was performed using Graphpad Prism® software.
(§3) To directly assess inhibition of FIG-ROS phosphorylation, immunoblot analyses of lysates from vehicle or inhibitor-treated cells were performed.

For assay [2], the system named is shPten murine cholangiocarcinoma tumor cells. The experiment in a line: cells. The following applies: Mus musculus, read-out: IC50 cell growth. The method, then:
as §1, §2, §3

Assay [3] relates to FIG-ROS cholangiocarcinoma tumor cells. The experiment in a line: Anchorage-independent colony formation in soft agar, FIG-ROS cholangiocarcinoma cells. Conditions: dose dependent. It is filed as cell-based, murine. From the text:
[…]. The values indicate the mean and the error bars indicate the standard error of the mean of 3 independent wells.
. The inhibition was dose dependent (FIG. 2B). […].

For assay [4], the target named is Ba/F3 FIG-ROS C2060G cells (Homo sapiens, UniProt P08922, C2060G, cells depend on it). The experiment in a line: Cell viability assay, Ba/F3 FIG-ROS C2060G. It is filed as cell-based. The following applies: Table 3, Ba/F3 FIG-ROS C2060G; nM; read-out: IC50 (the source's name). The method, then:
as §2
(§4) The FIG-ROS-S fusion gene was synthesized using the GeneArt® service. FIG-ROS-S is denoted as FIG-ROS herein.

In assay [5] the target is Ba/F3 FIG-ROS L1947R cells (Homo sapiens, UniProt P08922, L1947R, cells depend on it). The experiment in a line: Cell viability assay, Ba/F3 FIG-ROS L1947R. The format is cell-based. Conditions: Table 3, Ba/F3 FIG-ROS L1947R; nM; read-out: IC50 (the source's name). The method, then:
as §2, §4

In the next assay the target is SLC-ROS (Homo sapiens, UniProt P08922). The experiment in a line: Immunoblot of NIH3T3 SLC-ROS lysates. It is filed as cell-based. Details: SLC34A2 N-terminal portion, fusion partner; expressed in transfected cells; host or cells: Ba/F3 (A15) and NIH3T3 (A25), retroviral pMIG; the other entry of the earlier key: SLC34A2 (O95436, Sodium-dependent phosphate transport protein 2B). Conditions: NIH3T3 SLC-ROS cells, 1 hour, at lower doses than crizotinib. The method, then: The parental Ba/F3 cell line was cultured in RPMI 1640 medium with 10% FBS, L-glutamine, penicillin/streptomycin and 15% WEHI-conditioned media. Ba/F3 cell lines were maintained at densities of 0.5×10^6 to 1.5×10^6 per ml of media. FIG-ROS and SLC-ROS Ba/F3 lines were created by infecting the parental Ba/F3 with retrovirus expressing either human FIG-ROS-S (indicated FIG-ROS herein) or SLC-ROS-S (indicated SLC-ROS herein). Stable transfectant lines were sorted for GFP expression on a FACS Aria® flow cytometer. Cells were counted daily using Guava ViaCount® reagent and Guava Personal Cell Analysis® flow cytometer. […] Early passage NIH3T3 cells were infected with retrovirus expressing either FIG-ROS or SLC-ROS and sorted for GFP expression as described above for Ba/F3 cells. HCC78 cells were cultured in RPMI 1640 medium with 10% FBS, L-glutamine, and penicillin/streptomycin. This media is referred to as RPMI-10% FBS herein.
On the technique in general: In western blotting, separated proteins are transferred to a membrane and probed.

`COc1cc2c(Oc3ccc(NC(=O)C4(C(=O)Nc5ccc(F)cc5)CC4)cc3F)ccnc2cc1OCCCN1CCOCC1` [foretinib, N1′-[3-fluoro-4-[[6-methoxy-7-(3-morpholinopropoxy)-4-quinolyl]oxy]phenyl]-N1-(4-fluorophenyl)cyclopropane-1,1-dicarboxamide]: the GI50 at Ba/F3 ALK F1174L cells came out at 1800 nM; in assay [4], 13.6 nM; in [5], 17.9 nM. Further, the HCC78 cell migration result in the assay with HCC78 cells was “more potently inhibited by foretinib than crizotinib”. The anchorage-independent colony formation entry in the assay with NIH3T3 FIG-ROS cells is listed as “strongly suppressed”. In addition, the IC50 was 300 nM in assay [1] and more than 2000 nM in assay [2]. The “anchorage-independent colonies in soft agar” value in [3] is listed as “inhibited”. In addition, the SLC-ROS phosphorylation result at SLC-ROS is reported as “strongly suppressed”.
